Reference: BigSolDB 2.1

Cn1cc[n+](CCC[n+]2ccn(C)c2)c1.F[P-](F)(F)(F)(F)F.F[P-](F)(F)(F)(F)F
Conditions | solubility (mole fraction)
in 2-butanone, 290.15 K | 0.00292
in 2-butanone, 294.15 K | 0.00339
in 2-butanone, 299.35 K | 0.00404
in 2-butanone, 303.15 K | 0.00458
in 2-butanone, 308.15 K | 0.00524
in 2-butanone, 313.25 K | 0.00598
in 2-butanone, 318.15 K | 0.00671
in 2-butanone, 323.15 K | 0.00738
in 2-butanone, 328.15 K | 0.00811
in 2-butanone, 335.25 K | 0.00913
in acetone, 289.15 K | 0.0365
in acetone, 293.15 K | 0.0401
in acetone, 296.65 K | 0.0433
in acetone, 301.15 K | 0.0485
in acetone, 306.15 K | 0.0551
in acetone, 310.15 K | 0.0605
in acetone, 315.15 K | 0.0681
in acetone, 321.15 K | 0.0772
in acetophenone, 289.15 K | 0.000417
in acetophenone, 293.15 K | 0.000461
in acetophenone, 296.65 K | 0.0005
in acetophenone, 302.15 K | 0.00056
in acetophenone, 307.15 K | 0.000619
in acetophenone, 312.15 K | 0.000683
in acetophenone, 317.35 K | 0.000743
in acetophenone, 321.65 K | 0.000807
in acetophenone, 328.15 K | 0.000899
in acetophenone, 333.15 K | 0.000996
in acetylacetone, 288.55 K | 0.000598
in acetylacetone, 293.15 K | 0.000876
in acetylacetone, 297.45 K | 0.0012
in acetylacetone, 302.65 K | 0.00172
in acetylacetone, 307.85 K | 0.00241
in acetylacetone, 313.15 K | 0.00325
in acetylacetone, 317.65 K | 0.00411
in acetylacetone, 323.15 K | 0.00532
in acetylacetone, 327.35 K | 0.00639
in acetylacetone, 334.65 K | 0.0084
in cyclohexanone, 289.65 K | 0.000151
in cyclohexanone, 294.15 K | 0.000222
in cyclohexanone, 299.15 K | 0.000331
in cyclohexanone, 303.15 K | 0.000443
in cyclohexanone, 308.15 K | 0.000622
in cyclohexanone, 313.25 K | 0.000852
in cyclohexanone, 318.15 K | 0.00112
in cyclohexanone, 323.15 K | 0.00143
in cyclohexanone, 328.15 K | 0.00181
in cyclohexanone, 333.15 K | 0.00224
in water, 289.15 K | 7.7e-05
in water, 293.15 K | 0.000102
in water, 297.65 K | 0.000137
in water, 304.75 K | 0.000216
in water, 309.35 K | 0.000289
in water, 313.25 K | 0.000366
in water, 317.15 K | 0.000454
in water, 322.65 K | 0.000611
in water, 327.15 K | 0.00078
in water, 332.65 K | 0.00104
